Assay results: patent US8937155B2 (priority 2010, dated 2015)
Values after ≈ are worked out from the molar mass of the structure shown. “Also recorded” adds a separate entry of the source. Ends that are not written are not given here. Peptide text beside a SMILES is read from it.

Key:
[1] = in vitro; details: for stability relative to the original oncocin sequence: bacterial lysate of E. coli BL21 AI; for half-life at 150 μg/mL: pH 7.4
Protocol: Bacteria (E. coli BL21 AI) were cultured over night at 37° C. in nutrient broth (Carl Roth GmbH & Co. KG, Karlsruhe, Germany). This suspension was centrifuged (5000 rpm, 4° C.) in a AVANTI® J=20-XP centrifuge using a JLA-10500 rotor (Beckman coulter, Fullerton, USA). The pellet was washed with phosphate buffered saline (PBS, 8.7 mmol/L Na2HPO4, 1.2 mmol/L KH2PO4, 150 mmol/L NaCl, pH 7.4) and centrifuged in an ALLEGRA® 21 R centrifuge (Beckman Coulter, 3000 rpm, 4° C., 20 min). The pellet was resuspended in PBS (60 mg/mL) and lysed on ice using ultra sonic (2×2 min with 2 s on/2 s off) applied via micro tip (750 W, 40% amplitude; Fisher Biobiock Scientific, Illkirch, France). One mL aliquots were centrifuged (15400 rpm, 20 min, 4° C.) and the supernatant was stored at −80′C.
The peptide concentration was determined with a Bradford protein assay (Bradford M M. Rapid and Sensitive Method for Quantitation of Microgram Quantities of Protein Utilizing Principle of Protein-Dye Binding. Analytical Biochemistry 72: 248-54, 1976). Briefly, 0.01% (w/v) Coomassie brilliant blue G250 was dissolved in 5% aqueous ethanol containing 8.5% orthophosphoric (Bradford reagent). The mixture was incubated first at 60° C. for 1 h and then at room temperature for 12 h. After filtration 200 μl of the reagent were mixed with 50 μl sample solution in a polystyrole 96-well plate and incubated for 15 min in the dark. The absorption was measured at 595 nm against the negative control (50 μl PBS+200 μL Bradford reagent). The protein concentration was calculated from a calibration curve of bovine serum albumin.
The stability against bacterial proteases was determined in a bacterial lysate of E. coli BL21 AI adjusted with PBS to a protein concentration of 0.5 mg/mL. Peptides were dissolved in the bacterial lysate at a final concentration of 150 μg/mL and incubated at 37° C. Aliquots were taken in triplicates after 0, 30, 60, 120, and 240 min and precipitated by addition of trichloroacetic acid to a final concentration of 3% (v/v). After 10 minutes on ice, the samples were centrifuged, the supernatant neutralized with sodium hydroxide solution (1 mol/L) and stored at −20° C. The samples were analyzed by RP-HPLC (Jupiter C18-column) using a linear aqueous acetonitrile or methanol gradient containing 0.1% (v/v) TFA. Metabolites were identified by MALDI-TOF-MS.

[2] = system: M. luteus DSM 10240; type: cell-based, Micrococcus luteus; details: DSM 10240, 2 h
Protocol: (§1) Minimal inhibitory concentrations were determined in triplicates by a liquid broth microdilution assay in sterile 96-well plates (Greiner Bio-One GmbH, Frickenhausen, Germany) using a total volume of 100 μL per well (Amsterdam, D. Susceptibility testing of antimicrobials in liquid media in Antibiotics in laboratory medicine (ed. Lorian, V.) 52-111 (Lippincott Williams & Wilkins, Baltimore, 1996)). Aqueous peptide solutions (1 mg/mL) were serially two-fold diluted in 1% tryptic soy broth (TSB). A typical dilution series ranged from 128 μg/mL to 0.5 μg/mL in eight steps. Overnight cultures of bacteria were diluted with 1% TSB to 1.5×10^7 cells/mL (Klebsiella pneumoniae DSM 681, Escherichia coli BL21AI and DSM 10233) and 4×10^7 cells/mL (Micrococcus luteus ATCC 10240). Fifty μL of these solutions were added to each well gaining a starting cell concentration of 7.5×10^5 cells/well and 2×10^6 cells/well, respectively. […]

[3] = in vitro; details: mouse
Protocol: (§2) The serum stabilities of all peptides were determined in pure and 25% (v/v) aqueous pooled mouse serum (PAA Laboratories GmbH, Pasching, Austria) (Hoffmann R, Vasko M, & Otvos L. Serum stability of phosphopeptides. Analytica Chimica Acta 352: 319-25, 1997). Peptides were dissolved in serum at a final concentration of 75 μg/mL and incubated at 37° C. Aliquots taken in triplicates after 0, 30, 60, 120 and 240 min were precipitated by addition of trichloroacetic acid to a final concentration of 3% (v/v). After 10 minutes on ice, the samples were centrifuged, the supernatant neutralized with sodium hydroxide solution (1 mol/L) and stored at −20° C. The samples were analyzed on the analytical Jupiter C18-column using a linear aqueous acetonitrile or methanol gradient containing 0.1% (v/v) TFA. The metabolites were identified by MALDI-TOF-MS.

[4] = system: E. coli BL21 AI; assay: MIC, liquid broth microdilution assay; type: cell-based, Escherichia coli; details: 1% TSB, 37° C., 20±2 h
Protocol: Minimal inhibitory concentrations were determined in triplicates by a liquid broth microdilution assay in sterile 96-well plates (Greiner Bio-One GmbH, Frickenhausen, Germany) using a total volume of 100 μL per well (Amsterdam, D. Susceptibility testing of antimicrobials in liquid media in Antibiotics in laboratory medicine (ed. Lorian, V.) 52-111 (Lippincott Williams & Wilkins, Baltimore, 1996)). Aqueous peptide solutions (1 mg/mL) were serially two-fold diluted in 1% tryptic soy broth (TSB). A typical dilution series ranged from 128 μg/mL to 0.5 μg/mL in eight steps. Overnight cultures of bacteria were diluted with 1% TSB to 1.5×10^7 cells/mL (Klebsiella pneumoniae DSM 681, Escherichia coli BL21AI and DSM 10233) and 4×10^7 cells/mL (Micrococcus luteus ATCC 10240). Fifty μL of these solutions were added to each well gaining a starting cell concentration of 7.5×10^5 cells/well and 2×10^6 cells/well, respectively. The plates were incubated at 37° C. and the absorbance of each well was measured after 20±2 h at 595 nm.

[5] = system: K pneumoniae DSM 681; type: cell-based, Klebsiella pneumoniae; details: DSM 681, 2 h
Protocol: as §1

[6] = full mouse serum
Protocol: as §2

[7] = system: E. coli DSM 10233; type: cell-based, Escherichia coli; details: DSM 10233, 2 h
Protocol: as §1

[8] = full mouse serum (pooled mouse serum, PAA Laboratories); details: 37° C., up to 480 min
[9] = bacterial lysate of E. coli BL21 AI; details: 37° C., up to 240 min

Molecule	stability relative to the original oncocin sequence [1]	half-life at 150 μg/mL ([1]; cells or culture medium)	minimal inhibitory concentration (MIC) M. luteus DSM 10240 [2]	half-life at 75 μg/mL ([3]; full (pure) pooled mouse serum)	minimal inhibitory concentration (MIC) E. coli BL21 AI [4]	minimal inhibitory concentration (MIC) K pneumoniae DSM 681 [5]	starting derivative not degraded after 480 min [6]	minimal inhibitory concentration (MIC) E. coli DSM 10233 [7]	minimal inhibitory concentration (MIC) E. coli BL21 AI ([4]; listed as 3)	remaining at 8 h, 75 μg/mL ([3]; full (pure, undiluted) pooled mouse serum)	cleaved bond [8]	cleaved bond [9]	half-life at 150 μg/mL ([1]; Escherichia coli)	half-life at 75 μg/mL ([3]; pure (full) pooled mouse serum)
CC(C)C[C@H](NC(=O)[C@H](Cc1ccc(O)cc1)NC(=O)[C@@H]1CCCN1C(=O)[C@@H]1CCCN1C(=O)[C@H](CCCCN)NC(=O)[C@H](CC(=O)O)NC(=O)[C@@H](N)C(C)C)C(=O)N1CCC[C@H]1C(=O)N[C@@H](CCCNC(=N)N)C(=O)N1CCC[C@H]1C(=O)N[C@@H](CCCNC(=N)N)C(=O)N1CCC[C@H]1C(=O)N1CCC[C@H]1C(=O)N[C@@H](CCCNC(=N)N)C(=O)N[C@@H](CCCN)C(=O)N[C@H](C(=O)N[C@@H](Cc1ccc(O)cc1)C(=O)N[C@@H](CC(N)=O)C(=O)N[C@@H](CCCN)C(N)=O)[C@@H](C)O [SEQ ID NO. 2, VDKPPYLPRPRPPROTYNO-NH2] (HELM PEPTIDE1{V.D.K.P.P.Y.L.P.R.P.R.P.P.R.[Orn].T.Y.N.[Orn].[am]}$$$$V2.0; N-terminus assumed)	at least three times more stable	2.83 h	8 mg/L (≈ 3.49 µM)	2 h	4 mg/L (≈ 1.74 µM)									
CC(C)C[C@H](NC(=O)[C@H](Cc1ccc(O)cc1)NC(=O)[C@@H]1CCCN1C(=O)[C@@H]1CCCN1C(=O)[C@H](CCCCN)NC(=O)[C@H](CC(=O)O)NC(=O)[C@@H](N)C(C)C)C(=O)N1CCC[C@H]1C(=O)N[C@@H](CCCNC(=N)N)C(=O)N1CCC[C@H]1C(=O)N[C@@H](CCCNC(=N)N)C(=O)N1CCC[C@H]1C(=O)N1C[C@H](O)C[C@H]1C(=O)N[C@@H](CCCNC(=N)N)C(=O)N1C[C@H](O)C[C@H]1C(=O)N[C@H](C(=O)N[C@@H](Cc1ccc(O)cc1)C(=O)N[C@@H](CC(N)=O)C(=O)N[C@@H](CCCN)C(N)=O)[C@@H](C)O [SEQ ID NO. 3, VDKPPYLPRPRP-4tHyp-R-4tHyp-TYNO-NH2] (HELM PEPTIDE1{V.D.K.P.P.Y.L.P.R.P.R.P.[Hyp].R.[Hyp].T.Y.N.[Orn].[am]}$$$$V2.0; N-terminus assumed)	at least three times more stable	4 h	32 mg/L (≈ 13.9 µM)	> 8 h	2 to 4 mg/L	8 mg/L (≈ 3.47 µM)	(60%)	2 to 4 mg/L	4 mg/L (≈ 1.73 µM)					
CC[C@H](C)[C@H](NC(=O)[C@H](CCCN)NC(=O)[C@H](CCCNC(=N)N)NC(=O)[C@@H]1CCCN1C(=O)[C@@H]1CCCN1C(=O)[C@H](CCCNC(=N)N)NC(=O)[C@@H]1CCCN1C(=O)[C@H](CCCNC(=N)N)NC(=O)[C@@H]1CCCN1C(=O)[C@H](CC(C)C)NC(=O)[C@H](Cc1ccc(O)cc1)NC(=O)[C@@H]1CCCN1C(=O)[C@@H]1CCCN1C(=O)[C@H](CCCCN)NC(=O)[C@H](CC(=O)O)NC(=O)[C@@H](N)C(C)C)C(=O)N[C@@H](Cc1ccc(O)cc1)C(=O)N[C@@H](CC(N)=O)C(=O)N[C@@H](CCCN)C(N)=O [SEQ ID NO. 4, VDKPPYLPRPRPPROIYNO-NH2, reference compound] (HELM PEPTIDE1{V.D.K.P.P.Y.L.P.R.P.R.P.P.R.[Orn].I.Y.N.[Orn].[am]}$$$$V2.0; N-terminus assumed)			8 mg/L (≈ 3.47 µM)	2.92 h	8 mg/L (≈ 3.47 µM)					60%				
VDKPPYLPRPRPPRRIYNR-NH2											Arg15-Ile16, major; also recorded: Asn18-Arg19, major	Pro10-Arg11; also recorded: Pro13-Arg14; also recorded: Arg15-Ile16		
VDKPPYLPRPRPPRRIYNR-NH2 [SEQ ID NO. 1, VDKPPYLPRPRPPRRIYNR-NH2, reference compound]			8 mg/L		4 mg/L	4 mg/L		16 mg/L					1 h	0.5 h
